The numbers were not newly measured in US11439647B2 (Janssen Pharmaceutica NV, priority 2020, dated 2022), which cites them from elsewhere.

Each structure is given as a SMILES string.

In the case of `CCCCCCCCCCCCCCCC(=O)OC1CCCn2c1nc(C)c(CCN1CCC(c3noc4cc(F)ccc34)CC1)c2=O` (racemic) [paliperidone palmitate, (±)-3-[2-[4-(6-fluoro-1,2-benzisoxazol-3-yl)-1-piperidinyl]ethyl]-6,7,8,9-tetrahydro-2-methyl-4-oxo-4H-pyrido[1,2-c]pyrimidin-9-yl hexadecanoate], the water solubility entry is on record as “extreme low”.
